Assay results taken from paper PMC12147183, “Lacritin cleavage-potentiated targeting of iron - respiratory reciprocity promotes bacterial death” (The Journal of Biological Chemistry, 2025).
Peptide text beside a SMILES is read from it.

Key:
OprF = biological target: T1, OprF (Pseudomonas aeruginosa, UniProt P13794); assay: Affinity pulldown/tandem mass spectrometry of PA14 lysate; assay type: binding, Pseudomonas aeruginosa PA14; settings: 500 mM KCl eluate, n-octyl-β-D-glucopyranoside lysate, 4 °C
T1 construct: endogenous in cells; host or cells: P. aeruginosa PA14 overnight culture, n-octyl-β-D-glucopyranoside lysate
T1 sequence (P13794 25-350): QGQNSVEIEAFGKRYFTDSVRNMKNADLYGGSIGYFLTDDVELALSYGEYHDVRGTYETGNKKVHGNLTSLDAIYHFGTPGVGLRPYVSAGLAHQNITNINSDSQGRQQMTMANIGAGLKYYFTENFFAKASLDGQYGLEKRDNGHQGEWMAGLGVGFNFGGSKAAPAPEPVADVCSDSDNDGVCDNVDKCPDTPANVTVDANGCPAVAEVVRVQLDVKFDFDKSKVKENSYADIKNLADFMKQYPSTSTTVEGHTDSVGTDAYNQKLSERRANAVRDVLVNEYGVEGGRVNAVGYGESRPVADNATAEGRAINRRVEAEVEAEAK
Description: (§1) For generation of N-104 and negative control C-95 affinity columns, 2 mg of Cys(N)-N-104 or Cys(N)-C-95 in 2 ml of 50 mM Tris (pH 8.5), 5 mM EDTA coupling buffer were incubated with an equal volume of suspended SulfoLink Coupling Resin with mixing for 3 h at room temperature. Columns were subsequently washed with 3 ml of coupling buffer followed by 2 ml of freshly prepared 50 mM L-cysteine for 2 h at room temperature for quenching and then washed with 10 ml of 1 M NaCl prior to use or storage in 0.05% sodium azide at 4 °C. Coupling efficiency was determined using fluorescence from N-104's penultimate C-terminal tryptophan as 0.65 ± 0.04 μmole per ml of resin.
(§2) Screening for PA14 proteins with N-104 affinity columns was initiated from pelleted 2.5 L overnight cultures that were washed with ice-cold 10 mM Na2HPO4, 1.8 mM KH2PO4, 2.7 mM KCl, 137 mM NaCl (pH 7.2) and lysed by sonication in 25 ml of 50 mM Tris (pH 7.5), 1 mM MgCl2, 200 mM n-octyl-β-D-glucopyranoside with protease inhibitors. Sonication involved five cycles of 15 s with 45 s rest on ice followed by vortexing on ice for 30 min before being rocked end-over-end overnight at 4 °C. After centrifugation, the supernatant was subjected to end-over-end mixing with a 3-ml pre-column of Pierce Agarose followed by equal division by protein concentration for end-over-end incubation with 1 ml N-104 or C-95 columns at 4 °C. […]

YaiW = assay: as above; assay type: binding, Pseudomonas aeruginosa PA14; settings: 500 mM KCl eluate, n-octyl-β-D-glucopyranoside lysate, 4 °C
Description: as §1, §2

[1] = system: Keio E. coli K-12 single gene knockout strains; assay: Forward genetic N-104 resistance screen of Keio single gene knockouts; assay type: cell-based, Escherichia coli; settings: 100 μM N-104, slope 5 h after/5 h before; resistance cutoff 0.75
Description: We took advantage of the Alamar Blue viability assay ([85]). Briefly, wells of deep 96-well plates (1896–2000, USA Scientific) each containing 0.8 ml of LB broth supplemented with 50 μg/ml of kanamycin (BP906–5, Fisher Scientific) were singly inoculated with 10 μl aliquots of each of the 3884 Keio E. coli K-12 single gene knockout strains for 16 h at 37 °C on a rotator (160 rpm). A total of 200 μl of a 1:1000 dilution of each (∼10^6 cfu/ml) in 1 mM Na2HPO4, 0.18 mM KH2PO4, 0.27 mM KCl, 13.7 mM NaCl (pH 7.2) containing 10% Alamar Blue (DAL1100, Invitrogen) in wells of black 96-well plates was monitored hourly for 5 h in a SpectraMax M3 plate reader (Molecular Devices) with 3 s agitation before simultaneously reading from the well bottoms at medium PMT voltage with a 590 nm cutoff filter and six flashes per read for the Alamar Blue fluorescence signal (excitation/detection = 560/590 nm). The same hourly monitoring continued for 30 h after the addition of N-104, N-80/C-25 (negative control), or ampicillin (positive control; BP1760–5; Fisher Scientific) at a final concentration of 100 μM each. Data for each of the 3,884 strains were normalized to untreated with 10% Alamar Blue background subtracted as the ratio of the viability slope during the first 5 hours of N-104 treatment versus the slope 5 h previous.

SMILES	binding of outer membrane OprF to immobilized peptide (OprF)	affinity of outer membrane YaiW for immobilized peptide (YaiW)	treated:untreated metabolic slope ratio, ΔSbmA E. coli [1]	treated:untreated metabolic slope ratio, ΔYaiW E. coli [1]
C[C@H](NC(=O)CNC(=O)[C@@H](NC(=O)[C@H](CO)NC(=O)[C@H](CC(=O)O)NC(=O)[C@H](CO)NC(=O)[C@H](CO)NC(=O)[C@H](C)NC(=O)[C@H](CC(=O)O)NC(=O)[C@@H](N)CCC(=O)O)[C@@H](C)O)C(=O)N[C@@H](CC(=O)O)C(=O)N1CCC[C@H]1C(=O)N[C@@H](C)C(=O)N[C@@H](CCC(N)=O)C(=O)N[C@@H](CCC(=O)O)C(=O)N[C@@H](C)C(=O)NCC(=O)N[C@H](C(=O)N[C@@H](CO)C(=O)N[C@@H](CCCCN)C(=O)N1CCC[C@H]1C(=O)N[C@@H](CC(N)=O)C(=O)N[C@@H](CCC(=O)O)C(=O)N[C@@H](CCC(=O)O)C(N)=O)[C@@H](C)O [C-95, reference compound] (H-EDASSDSTGADPAQEAGTSKPNEE-NH2)	binds OprF			
CC(=O)N[C@@H](C)C(=O)N[C@@H](CCC(N)=O)C(=O)N[C@@H](CCCCN)C(=O)N[C@@H](CC(C)C)C(=O)N[C@@H](CC(C)C)C(=O)N[C@@H](CCCCN)C(=O)N[C@@H](CCCCN)C(=O)N[C@@H](Cc1ccccc1)C(=O)N[C@@H](CO)C(=O)N[C@@H](CC(C)C)C(=O)N[C@@H](CC(C)C)C(=O)N[C@@H](CCCCN)C(=O)N1CCC[C@H]1C(=O)N[C@@H](Cc1c[nH]c2ccccc12)C(=O)N[C@@H](C)C(=O)O [N-104] (Ac-AQKLLKKFSLLKPWA-OH)		selective affinity	0.69	0.70
